Measurements published in US20220242812A1, “SWELL1-LRRC8 COMPLEX MODULATORS” (Washington University, priority 2019, published 2022).
“Also recorded” adds a separate entry of the source.

Key:
[1] = target: ICl,SWELL (SWELL1 channel) (Homo sapiens, UniProt Q8IWT6); test: Patch-clamp screening of Smod compounds for ICl,SWELL inhibitory activity; type: cell-based; conditions: preliminary patch-clamp experiments, in words
From the text: FIG. 2. Patch-clamp screening of Smod compounds for ICL,SWELL inhibitory activity.
FIG. 3. Patch-clamp screening of Smod compounds for ICL,SWELL inhibitory activity.
A series of compounds (Smod compounds) were synthesized to evaluate the role of a butyrate side chain and aryl substituents on activity (see FIG. 1 and Table 1 below). In preliminary patch-clamp experiments to screen for compounds that preserve or enhance SWELL1 modulatory activity, unique structural derivatives were identified with ICl,SWELL inhibitory activity (Smod 2-6, FIGS. 2, 3, and 12-16, as well as Table 1 below). […] In vitro channel inhibitory activity was also maintained with Smod3-5 (FIG. 3). Note that compounds were also identified that lack activity, and therefore are not SWELL1 modulators (i.e., Snot1, FIGS. 2A and 3A). FIG. 4 summarizes three dose response curves of isolated enantiomers of Smod1 (+ and −) compared to Smod3. […] FIG. 5 summarizes the synthetic scheme used to generate these compounds.

HFD T2D mice = test: Glucose tolerance and fasting glucose in HFD T2D mice (Smod compounds, Example 2); type: in vivo
Protocol: FIG. 7. Representative glucose tolerance test data, area under curve (AUC) and fasting glucose for mice treated with a vehicle, and 5 mg/kg/day Smod3 or Snot1 for 5 days. Smod3, but not Snot1 improves glucose tolerance (as measured by are under the curve, AUC), and fasting glucose in HFD T2D mice. N=5 mice in each group. *p<0.05, ** p<0.01, *** p<0.001.
FIG. 8. Glucose Tolerance of obese T2D mice (16 weeks HFD): Pre-Smod6 (black circles), after Smod6 (5 mg/kg i.p.×5 days, pink triangles), 4 weeks after i.p. vehicle injection (blue diamonds), and 4 weeks after discontinuing Smod6 (maroon squares).
FIG. 9. Glucose Tolerance of obese T2D mice (16 weeks HFD): 4 weeks after i.p. vehicle injection (black circles), 4 weeks after Snot1 (5 mg/kg i.p.×5 days, blue squares), and 4 weeks after Smod6 (5 mg/kg i.p.×5 days, maroon triangles).
Moreover, Smod3, and not Snot1 (5 mg/kg i.p.×[…]) improve glucose tolerance (GTT, Area under the curve) and fasting glucose (FG) in mice raised on HFD for 8 weeks in pilot studies (FIG. 7).

[2] = target: T1, SWELL1-LRRC8 channel (ICl,SWELL) in HEK-293 cells (Homo sapiens, UniProt Q8IWT6); test: ICl,SWELL inhibition after hypotonic activation, patch-clamp in HEK-293 cells; type: cell-based; conditions: HEK-293 cells, hypotonic (210 mOsm), 10 and 7 μM, relative to SN-401
T1 construct: endogenous in cells; host or cells: HEK-293 (ATCC CRL-1573)
Protocol: Mean presented±SEM. Two-tailed unpaired t-test was used. *, **, and *** represents p<0.05, p<0.01 and p<0.001, respectively.
(§1) Patch-clamp recordings of β-cells and mature adipocytes were performed as described previously (Kang et al., 2018; Zhang et al., 2017). 3T3-F442A WT and KO preadipocytes were prepared as described in the Cell culture section above. For SWELL1 overexpression recordings, preadipocytes were first transduced with Ad5-CAG-LoxP-stop-LoxP-3×Flag-SWELL1 (MOI 12) in 2% FBS culture medium for two days and then overexpression induced by adding Ad5-CMV-Cre-wt-lRES-eGFP (MOI 10-12) in 2% FBS culture medium for two more days and changed to 10% FBS containing culture media and were selected based on GFP expression (˜2-3 days). For cell recordings, islets were transduced with Ad-RIP2-GFP and then dispersed after 48-72 hours for patch-clamp experiments. GFP+ cells marked β-cells selected for patch-clamp recordings. […] Recordings were measured using […] amplifier paired to a Digidata 1550 digitizer using pClamp 10.4 software. The extracellular buffer composition for hypotonic stimulation contains 90 mM NaCl, 2 mM CsCl, 1 mM MgCl, 1 mM CaCb, 10 mM HEPES, 10 mM Mannitol, pH 7.4 with NaOH (210 mOsm/kg). The extracellular isotonic buffer composition is same as above except for Mannitol concentration of 110 mM (300 mOsm/kg). The composition of intracellular buffer is 120 mM L-aspartic acid, 20 mM CsCl, 1 mM MgCl, 5 mM EGTA, 10 mM HEPES, 5 mM MgATP, 120 mM CsOH, 0.1 mM GTP, pH 7.2 with CsOH. All recordings were carried out at room temperature (RT) with HEK-293 cells, β-cells and 3T3-F442A cells performed in whole-cell configuration and human adipocytes in perforated-patch configuration, as previously described (Kang et al., 2018; Zhang et al., 2017).

[3] = target: T2, closed SWELL1-LRRC8 channel in HEK-293 cells (Homo sapiens, UniProt Q8IWT6); test: ICl,SWELL inhibition on application to the closed SWELL1-LRRC8 channel (30 min preincubation), HEK-293 cells; type: cell-based; conditions: 1 μM, 30 minutes prior to hypotonic activation
T2 construct: endogenous in cells; host or cells: HEK-293 (ATCC CRL-1573)
Protocol: as §1

SWELL1 protein [4] = target: T3, SWELL1 protein (Mus musculus, UniProt Q80WG5); conditions: 3T3-F442A adipocytes, 1 and 10 μM, 4 days
HFD-induced T2D mice = test: Metabolic phenotyping (fasting glucose, GTT, ITT) in HFD-fed T2D mice; type: in vivo; conditions: HFD 8 weeks, 5 mg/kg/day x 4 days, compared to SN071
Protocol: (§2) All compounds were dissolved in Kolliphor® EL (Sigma, #C5135).
Mice were fasted for 6 h prior to glucose tolerance tests (GTT). Baseline glucose levels at 0 min timepoint (fasting glucose, FG) were measured from blood sample collected from tail snipping using glucometer (Bayer Healthcare LLC). Either 1 g or 0.75 g D-Glucose/kg body weight were injected (i.p.) for lean or HFD mice, respectively and glucose levels were measured at 7, 15, 30, 60, 90 and 120 min timepoints after injection. For insulin tolerance tests (ITTs), the mice were fasted for 4 h. […] All mice and treatment groups were assessed blindly while performing experiments.

[5] = system: islets, glucose-stimulated insulin secretion; test: Islet perifusion GSIS assay, islets from treated T2D mice; type: in vivo; conditions: islets of T2D KKAy mice, compared to SN071
Protocol: For patch-clamp studies involving primary mouse cells, the mice were anesthesized by injecting Avertin (0.0125 g/ml in H2O) followed by cervical dislocation. […] Perifusion buffer contained (in mM): 120 NaCl, 24 NaHCO3, 4.8 KCl, 2.5 CaCl, 1.2 MgSO4, 10 HEPES, 2.8 glucose, 27.2 mannitol, 0.25% w/v bovine serum albumin, pH 7.4 with NaOH (300 mOsm/kg). Perifusion buffer kept at 37° C. was circulated at 120 μI/min After 48 min of washing with 2.8 mM glucose solution for stabilization, islets were stimulated with the following sequence: 16 min of 16.7 mM glucose, 40 min of 2.8 mM glucose, 10 min of 30 mM KCl, and 12 min of 2.8 mM glucose. Osmolarity was matched by adjusting mannitol concentration when preparing solution containing 16.7 mM glucose. Serial samples were collected either every 1 or 2 min into 96 wells kept at 4° C. Insulin concentrations were further determined using commercially available ELISA kit (Mercodia). The area under the curve (AUC) for the high-glucose induced insulin release was calculated for time points between 50 to 74/84 min. At the completion of the experiments, islets were further lysed by addition of RIPA buffer and the amount of insulin was detected by ELISA.

polygenic T2D KKAy mice = test: Metabolic phenotyping (fasting glucose, GTT, ITT) in polygenic T2D KKAy mice; type: in vivo; conditions: T2D KKAy mice, 5 mg/kg i.p. 4 days, compared to SN071
From the text: All C57BL/6 mice involved in study were purchased from Charles River Labs. Both KK.Cg-Ay/J (KKN) and KK.Cg-Aa/J (KKAa) mice involved in study were gender and age-matched mice obtained from Jackson Labs (Stock No: 002468) and bred up for experiments. The mice were fed ad libitum with either regular chow (RC) or high-fat diet (Research Diets, Inc., 60 kcal % fat) with free access to water and housed in a light-, temperature- and humidity-controlled room. For high-fat diet (HFD) studies, only male mice were used and were started on HFD regimen at the age of 6-9 weeks. For all experiments involving KKN and KKAa mice, both males and females were used at approximately 50/50 ratio. In all experiments involving mice, investigators were kept blinded both during the experiments and subsequent analysis.
as §2
Mice were fasted for 6 h prior to glucose tolerance tests (GTT). Baseline glucose levels at 0 min timepoint (fasting glucose, FG) were measured from blood sample collected from tail snipping using glucometer (Bayer Healthcare LLC). Either 1 g or 0.75 g D-Glucose/kg body weight were injected (i.p.) for lean or HFD mice, respectively and glucose levels were measured at 7, 15, 30, 60, 90 and 120 min timepoints after injection. For insulin tolerance tests (ITTs), the mice were fasted for 4 h. Similar to GTTs, the baseline blood glucose levels were measured at 0 min timepoint and 15, 30, 60, 90 and 120 min timepoints post-injection (i.p.) of insulin (HumulinR, 1 U/kg body weight for lean mice or 1.25 U/kg body weight for HFD mice). […] The collected plasma was then measured for insulin content by using Ultra-Sensitive Mouse Insulin ELISA Kit (Crystal Chem, #90080). All mice and treatment groups were assessed blindly while performing experiments.

SWELL1 protein [6] = target: T3, SWELL1 protein; test: Glucolipotoxic stress (palmitate + glucose) SWELL1 protein in 3T3-F442A adipocytes; conditions: 10 μM 96 h, 1 mM palmitate + 25 mM glucose
[7] = mice on HFD 8 weeks, 5 mg/kg i.p. x 4 days (FIG. 7 legend: 5 days), listed as Smod3, 5 mg/kg

CCCCC1(C2CCCC2)Cc2cc(OCCCN(C)C)c(Cl)c(Cl)c2C1=O.Cl (racemic) [UICK-IV-105b]
ICl,SWELL inhibitory activity ([1]; listed as Smod2): active; also recorded: maintaining activity

CCCCC1(C2CCCC2)Cc2cc(OCCCCC(=O)O)c(Cl)c(Cl)c2C1=O (racemic) [UICK-IV-119]
ICl,SWELL inhibitory activity ([1]; listed as Smod3): maintaining and augmenting activity | Fasting glucose (FG) (HFD T2D mice; [7]): improves | Glucose tolerance (GTT, area under the curve) (HFD T2D mice; [7]): improves

CCCCC1(C2CCCC2)Cc2cc(OC/C=C/C(=O)O)c(Cl)c(Cl)c2C1=O (racemic) [UIPC-II-179]
ICl,SWELL inhibitory activity [1]: maintaining activity

CCCCC1(C2CCCC2)Cc2cc(OCCCC(=O)O)c(C)c(C)c2C1=O (racemic) [UIPC-II-187B]
ICl,SWELL inhibitory activity ([1]; listed as Smod5): did not significantly alter activity; also recorded: maintaining activity

CCCCC1(C2CCCC2)Cc2cc(OCCCCCC(=O)O)c(Cl)c(Cl)c2C1=O (racemic) [UIPC-III-045B]
Glucose tolerance 4 weeks after discontinuing treatment (HFD T2D mice; T2D HFD fed mice, 5 mg/kg i.p. x 5 days, after 20 weeks HFD): sustain improved glucose tolerance

CCCCC1(C2CCCC2)Cc2cc(OCC(=O)O)c(Cl)c(Cl)c2C1=O (centres unmarked) [SN071, 2-((2-butyl-6,7-dichloro-2-cyclopentyl-1-oxo-2,3-dihydro-1H-inden-5-yl)oxy)acetic acid]
On-target inhibition of ICl,SWELL [2]: eliminate ICl,SWELL inhibitory activity | On-target inhibition of ICl,SWELL ([2]; listed as S1\1071): entirely eliminated | Subsequent hypotonic SWELL1-LRRC8 activation [3]: inactive | SWELL1 protein level relative to vehicle-treated controls (SWELL1 protein [4]): do not significantly increase

CCCCC1(C2CCCC2)Cc2cc(OCCCCC(=O)O)c(Cl)c(Cl)c2C1=O (centres unmarked) [SN-403, 5-((2-butyl-6,7-dichloro-2-cyclopentyl-1-oxo-2,3-dihydro-1H-inden-5-yl)oxy)pentanoic acid]
On-target inhibition of ICl,SWELL [2]: maintained or enhanced | Fasting blood glucose (HFD-induced T2D mice): significantly reduced | Glucose tolerance (HFD-induced T2D mice): improved

CCCCC1(C2CCCC2)Cc2cc(OCCCCCCC(=O)O)c(Cl)c(Cl)c2C1=O (centres unmarked) [SN-407, 7-((2-butyl-6,7-dichloro-2-cyclopentyl-1-oxo-2,3-dihydro-1H-inden-5-yl)oxy)heptanoic acid]
On-target inhibition of ICl,SWELL [2]: maintained or enhanced; also recorded: increase | GSIS [5]: increased | Glucose tolerance based on the GTT AUC (polygenic T2D KKAy mice): improved

CCCCC1(C2CCCC2)Cc2cc(OCC(=O)O)c(Cl)c(Cl)c2C1=O (centres unmarked) [UICK-IV-101a]
ICl,SWELL inhibitory activity ([1]; listed as Snot1): lack activity; also recorded: lacking ICl,SWELL inhibitory activity | Glucose tolerance (GTT, area under the curve) (HFD T2D mice; mice on HFD 8 weeks, 5 mg/kg i.p. x 4 days (FIG. 7 legend: 5 days)): not

O=C(O)CCCOc1cc2c(c(Cl)c1Cl)C(=O)C(C1CCCC1)C2 (centres unmarked) [UIPC-III-083B, 4-((6,7-dichloro-2-cyclopentyl-1-oxo-2,3-dihydro-1H-inden-5-yl)oxy)butanoic acid]
On-target inhibition of ICl,SWELL ([2]; listed as SN072): entirely eliminated; also recorded: eliminate ICl,SWELL inhibitory activity | Subsequent hypotonic SWELL1-LRRC8 activation [3]: inactive | Prevention of palmitate/glucose-induced SWELL1 protein reduction (SWELL1 protein [6]): not | SWELL1 protein level relative to vehicle-treated controls (SWELL1 protein [4]): do not significantly increase
